Results published in BindingDB's records for patent US11352356 (Takeda Pharmaceutical Company Limited, 2022).

Target: Plasma kallikrein (Human, UniProt P03952)
Test: Inhibitory Activity Assay
Description: Example compounds were evaluated for inhibition of the human activated kallikrein enzyme in two formats of an assay employing a fluorogenic peptide substrate. In one assay format, the concentrations of reagents were as follows: 20 mM Tris pH 7.5, 1 mM EDTA, 150 mM sodium chloride, 0.1% PEG-400, 0.1% Triton X-100, 500 pM activated kallikrein enzyme, 300 uM Pro-Phe-Arg-7-amido-4-methylcoumarin substrate. Prior to reaction initiation with substrate, enzyme and inhibitors were preincubated for 30 min at RT. After initiation with substrate, reactions were incubated for 10 min at RT and fluorescence emission at 460 nm from 380 nm excitation measured with a microplate reader. In another assay format, the concentrations of reagents were as follows: 20 mM Tris pH 7.5, 1 mM EDTA, 150 mM sodium chloride, 0.1% PEG-400, 0.1% Triton X-100, 5 pM activated kallikrein enzyme, 300 uM Pro-Phe-Arg-7-amido-4-methylcoumarin substrate. Prior to reaction initiation with substrate, enzyme and inhibitors were preincubated for 30 min at RT. After initiation with substrate, reactions were incubated for 18 h at RT and fluorescence emission at 460 nm from 380 nm excitation measured with a microplate reader.

Plasma kallikrein, sequence (P03952 20-390 S143N limits assumed): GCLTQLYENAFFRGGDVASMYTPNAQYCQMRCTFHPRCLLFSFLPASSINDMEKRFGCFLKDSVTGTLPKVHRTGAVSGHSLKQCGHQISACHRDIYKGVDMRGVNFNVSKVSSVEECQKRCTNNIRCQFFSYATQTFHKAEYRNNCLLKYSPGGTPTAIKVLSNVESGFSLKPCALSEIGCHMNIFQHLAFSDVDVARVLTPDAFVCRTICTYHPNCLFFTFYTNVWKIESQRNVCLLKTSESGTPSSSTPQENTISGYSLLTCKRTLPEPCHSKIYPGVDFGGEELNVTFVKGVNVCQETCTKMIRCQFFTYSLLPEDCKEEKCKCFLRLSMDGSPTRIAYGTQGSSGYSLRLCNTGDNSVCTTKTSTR
Plasma kallikrein, sequence (P03952 391-638 limits assumed): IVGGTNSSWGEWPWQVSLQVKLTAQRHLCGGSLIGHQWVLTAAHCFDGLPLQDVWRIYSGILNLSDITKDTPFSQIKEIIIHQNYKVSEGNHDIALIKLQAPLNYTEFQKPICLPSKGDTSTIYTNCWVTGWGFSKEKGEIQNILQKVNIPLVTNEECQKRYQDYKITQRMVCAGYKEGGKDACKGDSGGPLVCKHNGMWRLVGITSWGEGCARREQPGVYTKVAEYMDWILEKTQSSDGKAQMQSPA

Question: O=C(NCc1ncn2ccc(Cl)cc12)c1cnn(Cc2cn3ccc(C4CC4)c(F)c3n2)c1 [US11352356, Compound I-144] was tested. Which EC50 did it give?
Answer: The EC50 was under 1 nM.

Question: For O=C(NCc1ncn2ccc(Cl)c(F)c12)c1cn(Cc2cn3ccc(C4CC4)cc3n2)nn1 [US11352356, Compound I-148], which EC50 is on record?
Answer: The EC50 was under 1 nM.

Question: How did the EC50 turn out when CC(C)(C)OC(=O)C(C)(C)Oc1cc(C2CC2)cn2cc(Cn3cc(C(=O)NCc4ncn5ccc(Cl)c(F)c45)nn3)nc12 [US11352356, Compound I-212] was run?
Answer: Its EC50 is under 1 nM.

Question: How did the EC50 turn out when COC(=O)c1cnn(-c2cc(C3CC3)cn3cc(Cn4cc(C(=O)NCc5ncn6ccc(Cl)c(F)c56)nn4)nc23)c1 [US11352356, Compound I-230] was run?
Answer: The EC50 was under 1 nM.

Question: With CCOC(COCc1cc(C2CC2)cn2cc(Cn3cc(C(=O)NCc4ncn5ccc(Cl)c(F)c45)nn3)nc12)OCC [US11352356, Compound I-301] as the compound, how does the EC50 read?
Answer: Its EC50 is under 1 nM.

Question: CC(C)(C)[S+]([O-])NCCOCc1cc(C2CC2)cn2cc(Cn3cc(C(=O)NCc4ncn5ccc(Cl)c(F)c45)nn3)nc12 (stereo unspecified) [US11352356, Compound I-302] was tested. Which EC50 did it give?
Answer: The EC50 was under 1 nM.
